Type in all cases: biochemical
Assay [1] has as its target T1, recombinant HGFA serine protease domain (Homo sapiens, UniProt Q04756).
T1 construct: His6 tag (N); seven amino acid spacer plus TEV cleavage site (N); made in house; host or cells: High 5 insect cells (baculovirus; Sf9 for virus production)
T1 sequence (Q04756 373-655): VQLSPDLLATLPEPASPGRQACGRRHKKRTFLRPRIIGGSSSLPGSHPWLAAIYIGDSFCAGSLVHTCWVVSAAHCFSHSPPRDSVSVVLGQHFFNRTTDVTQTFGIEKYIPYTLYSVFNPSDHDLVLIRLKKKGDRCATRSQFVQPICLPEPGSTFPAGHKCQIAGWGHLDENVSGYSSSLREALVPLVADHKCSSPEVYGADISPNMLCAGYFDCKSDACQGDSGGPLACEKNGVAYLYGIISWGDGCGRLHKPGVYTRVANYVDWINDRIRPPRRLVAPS
The assay is described as follows: Fluorescent kinetic enzyme assay of HGFA activity (Boc-QLR-AMC). Particulars: Table 2; read-out: HGFA (IC50 nM). In a few lines: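 His-tagged HGFA protease domain from baculovirus-infected High 5 cells, 6.25 nM in pH 8 Tris/NaCl/5 mM CaCl2/0.01% Triton X-100 with 2% DMSO. IC50 from four-parameter velocity fit (≥3 runs); apparent Ki by Cheng–Prusoff.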

Assay [2] deals with Factor Xa (Homo sapiens, UniProt P00742). The assay is described as follows: Chromogenic kinetic enzyme assay of Factor Xa (S2222). Particulars: Table 2; chromogenic assay; read-out: Factor Xa* (IC50 nM).
In assay [3] the target is T2, activated hepsin (Homo sapiens, UniProt P05981).
T2 construct: purchased R&D Systems 4776-SE-010
Put plainly: Fluorescent kinetic enzyme assay of hepsin activity (Boc-QAR-AMC). Particulars: Table 2; read-out: Hepsin (IC50 nM).
Experimental: (§1) After thirty minutes of incubation at room temperature, Boc-QLR-AMC substrate was added (HGFA assay) or Boc-QAR-AMC substrate (matriptase, and hepsin assays). […] From a plot of the mean reaction velocity versus the inhibitor concentration, a non-linear four parameter curve fit was performed using GraphPad Prism (GraphPad Software, San Diego, CA) to determine inhibitor IC50s. The IC50 values were determined from the average of three or more separate experimental determinations. Apparent Ki values were calculated using the Cheng and Prusoff equation (Ki=IC50/(1+[S]/Km).
(§2) Inhibitors were pre-incubated with protease followed by the addition of the substrate. Inhibition of substrate proteolysis derived fluorescence was monitored kinetically over a period of one hour.

The target of assay [4] is recombinant thrombin (Homo sapiens, UniProt P00734). The assay is described as follows: Chromogenic kinetic enzyme assay of thrombin (S2238). Particulars: Table 2; chromogenic assay; read-out: Thrombin* (IC50 nM).
Assay [5] addresses T3, matriptase (Homo sapiens, UniProt Q9Y5Y6).
T3 construct: purchased R&D Systems 3946-SE-010
T3 sequence (Q9Y5Y6 615-855 limits assumed): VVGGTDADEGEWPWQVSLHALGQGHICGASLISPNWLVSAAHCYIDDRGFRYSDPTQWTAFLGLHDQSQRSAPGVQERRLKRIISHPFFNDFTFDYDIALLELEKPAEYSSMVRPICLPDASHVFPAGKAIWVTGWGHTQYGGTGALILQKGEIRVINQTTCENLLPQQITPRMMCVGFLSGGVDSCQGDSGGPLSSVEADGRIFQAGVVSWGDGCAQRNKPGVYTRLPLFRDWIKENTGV
The assay is described as follows: Fluorescent kinetic enzyme assay of matriptase activity (Boc-QAR-AMC). To be noted: Table 2; read-out: Matriptase (IC50 nM).
Experimental: as §1, §2

The text below walks through data of patent publication US12590123B2, “Compounds and methods for treating cancer, viral infections, and allergic conditions” (Washington University, priority 2019, dated 2026).

T2 sequence (P05981 163-417 limits assumed): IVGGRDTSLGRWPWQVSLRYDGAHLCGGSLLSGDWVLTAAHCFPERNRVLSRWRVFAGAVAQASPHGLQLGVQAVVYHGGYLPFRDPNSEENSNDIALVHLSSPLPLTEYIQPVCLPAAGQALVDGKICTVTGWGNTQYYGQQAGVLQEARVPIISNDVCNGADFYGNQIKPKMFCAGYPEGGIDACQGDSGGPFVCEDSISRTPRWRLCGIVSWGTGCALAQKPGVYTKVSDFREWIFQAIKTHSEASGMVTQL
T2 sequence (P05981 1-162 partner limits assumed): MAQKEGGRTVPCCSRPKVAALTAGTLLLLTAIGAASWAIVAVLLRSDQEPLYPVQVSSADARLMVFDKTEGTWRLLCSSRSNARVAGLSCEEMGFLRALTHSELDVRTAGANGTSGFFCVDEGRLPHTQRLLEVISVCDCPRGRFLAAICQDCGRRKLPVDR
Chain of Factor Xa (P00742 235-488 limits assumed): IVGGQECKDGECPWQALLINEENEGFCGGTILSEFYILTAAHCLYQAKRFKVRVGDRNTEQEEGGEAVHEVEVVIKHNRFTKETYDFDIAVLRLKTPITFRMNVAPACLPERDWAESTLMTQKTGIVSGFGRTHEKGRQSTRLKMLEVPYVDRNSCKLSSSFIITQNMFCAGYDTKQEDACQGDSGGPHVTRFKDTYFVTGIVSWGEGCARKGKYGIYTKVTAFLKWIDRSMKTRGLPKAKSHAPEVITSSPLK
Chain of Factor Xa (P00742 41-179 partner limits assumed): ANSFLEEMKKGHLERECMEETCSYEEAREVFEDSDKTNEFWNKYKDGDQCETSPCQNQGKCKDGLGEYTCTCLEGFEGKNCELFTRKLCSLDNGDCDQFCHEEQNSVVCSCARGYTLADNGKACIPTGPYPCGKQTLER

As to `CC(=O)N[C@H]1CC(=O)NCCCC[C@@H](C(=O)N[C@@H](CCCNC(=N)N)C(=O)c2nc3ccccc3s2)NC(=O)[C@H](Cc2ccccc2)NC1=O` [VD3112, (3S,6S,14S)-6-acetamido-N—((S)-1-(benzo[d]thiazol-2-yl)-5-guanidino-1-oxopentan-2-yl)-3-benzyl-2,5,8-trioxo-1,4,9-triazacyclotetradecane-14-carboxamide], the IC50 in assay [1] is 3170 nM; in assay [2], 1530 nM; in assay [3], 17.4 nM; in assay [4] it was 1090 nM; in assay [5] it was 3.4 nM.

The term IC50 denotes the concentration that gives 50% inhibition.
